Structures can show the parent of a compound that is named as a salt.
Key:
human 5-HT2A receptor = target: T1, human 5-HT2A receptor (Homo sapiens, UniProt P28223); assay: 5-HT2A FLIPR assay (calcium response to DOI) in CHO cells; assay type: cell-based; details: for IC50: antagonist inhibition of 3 nM DOI stimulation, CHO cells, FLIPR; for inhibition at 1 µM: CHO, read-out: 5-HT2A Percentage inhibition at 1 μM
T1 construct: expressed in transfected cells; host or cells: CHO
Method: Cells are washed with PBS without Ca^2+ and 3 mL Trypsin is added to dissociate cells. After 3 minute incubation, 7 mL Trypsin Neutralizing Solution is added. Cells are then aspirated from flask and mixed in a 50 mL conical tube. 10 μL sample is used to count cells on a hemacytometer. […] Two 96-well drug plates are prepared for each cell plate. Plate 1 will contain compounds to be tested and plate 2 will contain the agonist DOI (3 nM) to activate a calcium response. Specific details of compound preparation are listed below. […] Outside wells are not used due to an edge effect seen in these cells. The reference compounds DOI and 5-HT are used as standard 5HT agonists. […] Standards for plate one are Vehicle, 1 μM DOI, and 3 nM MDL. […] On the day of the assay, test compound solutions of appropriate concentrations are diluted in assay buffer as described for single concentration testing. This procedure is followed to ensure that the solvent concentration is consistent across dilutions. The typical concentration testing range of compounds is 10^−10—10^−5 M in half log or full log increments. A 10 μM DOI stock is diluted to 60 nM and added to the respective wells. The pipeting station of the FLIPR will make an additional 20-fold dilution for a final concentration of 3 nM. Standards for this plate include Vehicle and 3 nM DOI. Contents of dye vial (Molecular Devices #R8090) are dissolved in 100 mL of 1×HBSS supplemented with 20 mM HEPES. Aliquots can be frozen at −20° C. for up to one week for future use. On the day of assay, dye is thawed and diluted to half concentration. […] Cells are allowed to adhere for 24 hours in 96-well plates. […] Cell, compound and DOI plates are loaded into the FLIPR machine. The baseline fluorescence level is read once every second for 1 minute. Compound (10 μL) is transferred from the compound plate to the cells and the fluorescence level recorded every 6 seconds for 2 minutes to determine any agonist activity. Baseline fluorescence is recorded again every second for 10 seconds. For antagonist determination, 10 μL of 3 nM DOI is transferred from the DOI plate to the cells and the fluorescence level recorded every 6 seconds for 5 minutes. The pipetting unit of the FLIPR machine completes all transfers. […] The data are log transformed prior to analysis.

human hNET = target: T2, human hNET (Homo sapiens, UniProt P23975); assay: Norepinephrine (NE) uptake assay in MDCK-Net6 cells; assay type: cell-based; details: [3H]NE uptake; for EC50: MDCK-Net6 cells stably transfected with hNET; for inhibition at 1 µM: MDCK-Net6 cells, read-out: hNET Percentage inhibition at 1 μM
T2 construct: expressed in transfected cells; host or cells: MDCK (MDCK-Net6)
T2 sequence (P23975 whole entry): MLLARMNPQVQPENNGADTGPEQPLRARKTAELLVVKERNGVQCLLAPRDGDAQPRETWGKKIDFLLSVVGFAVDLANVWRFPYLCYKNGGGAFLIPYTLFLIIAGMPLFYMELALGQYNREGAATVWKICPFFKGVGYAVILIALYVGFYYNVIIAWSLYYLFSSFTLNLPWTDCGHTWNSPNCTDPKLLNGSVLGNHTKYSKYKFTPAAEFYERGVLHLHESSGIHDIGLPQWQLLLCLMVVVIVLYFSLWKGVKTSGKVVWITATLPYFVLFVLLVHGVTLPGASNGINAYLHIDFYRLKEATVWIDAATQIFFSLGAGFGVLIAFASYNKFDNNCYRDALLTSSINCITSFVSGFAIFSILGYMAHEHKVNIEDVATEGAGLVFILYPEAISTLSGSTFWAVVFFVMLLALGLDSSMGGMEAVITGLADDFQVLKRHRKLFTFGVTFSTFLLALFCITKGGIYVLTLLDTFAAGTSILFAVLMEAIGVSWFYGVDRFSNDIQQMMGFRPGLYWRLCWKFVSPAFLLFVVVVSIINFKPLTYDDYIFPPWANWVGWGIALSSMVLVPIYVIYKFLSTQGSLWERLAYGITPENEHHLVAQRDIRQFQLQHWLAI

T1 sequence (P28223 whole entry): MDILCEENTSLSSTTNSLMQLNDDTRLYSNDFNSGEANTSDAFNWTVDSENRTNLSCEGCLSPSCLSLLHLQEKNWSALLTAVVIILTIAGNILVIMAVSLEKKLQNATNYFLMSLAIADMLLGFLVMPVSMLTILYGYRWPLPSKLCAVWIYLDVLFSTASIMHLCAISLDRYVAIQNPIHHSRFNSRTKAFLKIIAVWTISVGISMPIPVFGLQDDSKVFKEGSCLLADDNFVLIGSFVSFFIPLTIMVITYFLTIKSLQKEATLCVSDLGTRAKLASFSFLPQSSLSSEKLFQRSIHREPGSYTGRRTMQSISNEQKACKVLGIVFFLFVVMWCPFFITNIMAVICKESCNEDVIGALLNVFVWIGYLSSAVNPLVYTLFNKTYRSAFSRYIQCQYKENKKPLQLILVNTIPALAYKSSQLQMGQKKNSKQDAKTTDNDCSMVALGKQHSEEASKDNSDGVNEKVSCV

IC50 (human 5-HT2A receptor) [nM]	Structure (SMILES)	EC50 (human hNET) [nM]	inhibition at 1 µM (human 5-HT2A receptor) [%]	inhibition at 1 µM (human hNET) [%]
203	CNC[C@@H](O)[C@H](c1ccccc1)N1C(=O)C2(CCCCC2)c2cccc(Cl)c21 [Example 31, 7′-Chloro-1′-[(1S,2R)-2-hydroxy-3-(methylamino)-1-phenylpropyl]spiro[cyclohexane-1,3′-indol]-2′(1′H)-one hydrochloride]	32		
	CNC[C@@H](O)[C@H](c1cccc(F)c1)N1C(=O)C2(CCCCC2)c2ccc(F)cc21 [Example 32, 6′-fluoro-1′-[(1S,2R)-1-(3-fluorophenyl)-2-hydroxy-3-(methylamino)propyl]spiro[cyclohexane-1,3′-indol]-2′(1′H)-one hydrochloride]	43	95	
	CNC[C@@H](O)[C@H](c1ccccc1)N1CC2(CCCCC2)c2ccccc21 [Example 33, (1S,2R)-3-(methylamino)-1-phenyl-1-spiro[cyclohexane-1,3′-indol]-1′(2′H)-ylpropan-2-ol hydrochloride]	29	13	
	CNC[C@@H](O)[C@H](c1ccccc1)n1ccc2cc(NC(=O)c3ccc(C)c(Cl)c3)ccc21 [Example 71, 3-chloro-N-{1-[(1S,2R)-2-hydroxy-3-(methylamino)-1-phenylpropyl]-1H-indol-5-yl}-4-methylbenzamide hydrochloride]	92	44	
	CNC[C@@H](O)[C@H](c1ccccc1)N1CCc2cc(NC(=O)c3cccc(Cl)c3)ccc21 [Example 72, 3-Chloro-N-{1-[(1S,2R)-2-hydroxy-3-(methylamino)-1-phenylpropyl]-2,3-dihydro-1H-indol-5-yl}benzamide hydrochloride]	95	60	
625	CNC[C@@H](O)[C@H](c1ccccc1)n1ccc2cc(NC(=O)c3cccc(Cl)c3)ccc21 [Example 73, 3-Chloro-N-{1-[(1S,2R)-2-hydroxy-3-(methylamino)-1-phenylpropyl]-1H-indol-5-yl}benzamide hydrochloride]	91		
	CNC[C@@H](O)[C@H](c1ccccc1)N1CCc2cc(NC(=O)c3ccccc3)ccc21 [Example 74, N-{1-[(1S,2R)-2-Hydroxy-3-(methylamino)-1-phenylpropyl]-2,3-dihydro-1H-indol-5-yl}benzamide hydrochloride]	365	24	
	CNC[C@@H](O)[C@H](c1ccccc1)n1ccc2cc(NC(=O)c3ccccc3)ccc21 [Example 75, N-{1-[(1S,2R)-2-Hydroxy-3-(methylamino)-1-phenylpropyl]-1H-indol-5-yl}benzamide hydrochloride]	299	34	
	CNC[C@@H](O)[C@H](c1ccccc1)N1CCc2cc(NC(=O)C3CCCCC3)ccc21 [Example 76, N-{1-[(1S,2R)-2-Hydroxy-3-(methylamino)-1-phenylpropyl]-2,3-dihydro-1H-indol-5-yl}cyclohexanecarboxamide hydrochloride]		45	54
	CNC[C@@H](O)[C@H](c1ccccc1)n1ccc2cc(NC(=O)C3CCCCC3)ccc21 [Example 77, N-{1-[(1S,2R)-2-Hydroxy-3-(methylamino)-1-phenylpropyl]-1H-indol-5-yl}cyclohexanecarboxamide hydrochloride]		51	60
691	CNC[C@@H](O)[C@H](c1ccccc1)N1CCc2cc(C(=O)Nc3cccc(Cl)c3)ccc21 [Example 78, N-(3-Chlorophenyl)-1-[(1S,2R)-2-hydroxy-3-(methylamino)-1-phenylpropyl]indoline-5-carboxamide hydrochloride]	362		
84	CNC[C@@H](O)[C@H](c1ccccc1)n1ccc2cc(C(=O)Nc3cccc(Cl)c3)ccc21 [Example 79, N-(3-Chlorophenyl)-1-[(1S,2R)-2-hydroxy-3-(methylamino)-1-phenylpropyl]-1H-indole-5-carboxamide hydrochloride]	328		
	CNC[C@@H](O)[C@H](c1ccccc1)n1ccc2ccc(Oc3ccccc3)cc21 [Example 80, (1S,2R)-3-(methylamino)-1-(6-phenoxy-1H-indol-1-yl)-1-phenylpropan-2-ol hydrochloride]		32	12
372	CNC[C@@H](O)[C@H](c1ccccc1)n1ccc2cccc(Oc3ccccc3)c21 [Example 81, (1S,2R)-3-(methylamino)-1-(7-phenoxy-1H-indol-1-yl)-1-phenylpropan-2-ol hydrochloride]	1020		
796	NC[C@@H](O)[C@H](c1ccccc1)n1ccc2cc(OCc3ccccc3)ccc21 [Example 82, (1S,2R)-3-amino-1-[5-(benzyloxy)-1H-indol-1H-yl]-1-phenylpropan-2-ol hydrochloride]	279		
380	CCNC[C@@H](O)[C@H](c1ccccc1)n1ccc2cc(OCc3ccccc3)ccc21 [Example 83, (1S,2R)-1-[5-(benzyloxy)-1H-indol-1-yl]-3-(ethylamino)-1-phenylpropan-2-ol hydrochloride]			43
	CCCNC[C@@H](O)[C@H](c1ccccc1)n1ccc2cc(OCc3ccccc3)ccc21 [Example 84, (1S,2R)-1-[5-(benzyloxy)-1H-indol-1-yl]-1-phenyl-3-(propylamino)propan-2-ol hydrochloride]		50	11
	CC(C)NC[C@@H](O)[C@H](c1ccccc1)n1ccc2cc(OCc3ccccc3)ccc21 [Example 85, (1S,2R)-1-[5-(benzyloxy)-1H-indol-1-yl]-3-(isopropylamino)-1-phenylpropan-2-ol hydrochloride]		32	4
263	CN(C)C[C@@H](O)[C@H](c1ccccc1)n1ccc2cc(OCc3ccccc3)ccc21 [Example 86, (1S,2R)-1-[5-(benzyloxy)-1H-indol-1-yl]-3-(dimethylamino)-1-phenylpropan-2-ol hydrochloride]			22
1120	CCN(C)C[C@@H](O)[C@H](c1ccccc1)n1ccc2cc(OCc3ccccc3)ccc21 [Example 87, (1S,2R)-1-[5-(benzyloxy)-1H-indol-1-yl]-3-[ethyl(methyl)amino]-1-phenylpropan-2-ol hydrochloride]			16
	CCN(CC)C[C@@H](O)[C@H](c1ccccc1)n1ccc2cc(OCc3ccccc3)ccc21 [Example 88, (1S,2R)-1-[5-(benzyloxy)-1H-indol-1-yl]-3-(diethylamino)-1-phenylpropan-2-ol hydrochloride]		33	21
	O[C@H](CN1CCCC1)[C@H](c1ccccc1)n1ccc2cc(OCc3ccccc3)ccc21 [Example 89, (1S,2R)-1-[5-(benzyloxy)-1H-indol-1-yl]-1-phenyl-3-pyrrolidin-1-ylpropan-2-ol hydrochloride]		32	14
	O[C@H](CN1CCCCC1)[C@H](c1ccccc1)n1ccc2cc(OCc3ccccc3)ccc21 [Example 90, (1S,2R)-1-[5-(benzyloxy)-1H-indol-1-yl]-1-phenyl-3-piperidin-1-ylpropan-2-ol hydrochloride]		25	12
	CN1CCN(C[C@@H](O)[C@H](c2ccccc2)n2ccc3cc(OCc4ccccc4)ccc32)CC1 [Example 91, (1S,2R)-1-[5-(benzyloxy)-1H-indol-1-yl]-3-(4-methylpiperazin-1-yl)-1-phenylpropan-2-ol hydrochloride]		29	22
	CNC[C@@H](O)[C@H](c1ccccc1)n1ccc2cc(C#Cc3ccccc3)ccc21 [Example 93, (1S,2R)-3-(methylamino)-1-phenyl-1-[5-(phenylethynyl)-1H-indol-1-yl]propan-2-ol hydrochloride]	287	36	
636	CNC[C@@H](O)[C@H](c1ccccc1)n1ccc2cc(CCc3ccccc3)ccc21 [Example 94, (1S,2R)-3-(methylamino)-1-phenyl-1-[5-(2-phenylethyl)-1H-indol-1-yl]propan-2-ol hydrochloride]	86		
	NC[C@@H](O)[C@H](c1ccccc1)N1C(=O)C2(CCCCC2)c2ccc(F)cc21 [Example 95, 1′-[(1S,2R)-3-amino-2-hydroxy-1-phenylpropyl]-6′-fluorospiro[cyclohexane-1,3′-indol]-2′(1′H)-one hydrochloride]		44	7

Source: patent publication US20070072897A1, “Phenylaminopropanol derivatives and methods of their use” (Wyeth, priority 2005, published 2007)
